Data reported in ChEMBL document CHEMBL2092589, “Liver-stage malaria parasites vulnerable to diverse chemical scaffolds” (Proc Natl Acad Sci U S A, 2012).
Structures can show the parent of a compound that is named as a salt.

Key:
Plasmodium falciparum [1] = assay: HARVARD: Inhibition of blood stage Plasmodium falciparum Dd2 infection; type: functional, organism-based; conditions: Plasmodium falciparum, Dd2
Plasmodium falciparum [2] = assay: HARVARD: Inhibition of blood stage Plasmodium falciparum 3D7 infection; type: functional, organism-based; conditions: Plasmodium falciparum, 3D7
Plasmodium berghei = assay: HARVARD: Inhibition of liver stage Plasmodium berghei infection in HepG2 cells; type: functional, organism-based, ANKA; conditions: Plasmodium berghei, ANKA, HepG2
[3] = HARVARD: Cytotoxicity in HepG2 cell line; conditions: human, HepG2 cells

| SMILES | IC50 (Plasmodium falciparum [1]) [nM] | IC50 (Plasmodium falciparum [2]) [nM] | IC50 (Plasmodium berghei) [nM] | IC50 [3] [nM] |
| --- | --- | --- | --- | --- |
| CO[C@H](C(=O)[C@@H](O)[C@@H](C)O)[C@@H]1Cc2cc3cc(O[C@H]4C[C@@H](O[C@@H]5C[C@@H](O)[C@H](O)[C@@H](C)O5)[C@H](O)[C@@H](C)O4)c(C)c(O)c3c(O)c2C(=O)[C@H]1O[C@H]1C[C@@H](O[C@@H]2C[C@@H](O)[C@@H](O[C@@H]3C[C@](C)(O)[C@H](O)[C@@H](C)O3)[C@@H](C)O2)[C@H](O)[C@@H](C)O1 [PLICAMYCIN] | 12.5 | 15 | 833 | – |
| CCN(CC)CCOc1ccc(C(=C(Cl)c2ccccc2)c2ccccc2)cc1 [CLOMIPHENE] | – | – | 219 | 11000 |
| CC[C@@H](C(=O)[C@@H](C)[C@@H](O)[C@H](C)CCc1ccc(C)c(O)c1C(=O)O)[C@H]1O[C@](CC)([C@H]2CC[C@](O)(CC)[C@H](C)O2)C[C@@H]1C [LASALOCID A SODIUM] | – | – | 11 | > 100000 |
| CCCC(C(=O)OCCN(CC)CC)(c1ccccc1)c1ccccc1 [PROADIFEN HYDROCHLORIDE] | 722 | – | 2780 | 57000 |
| COc1cccc2c1C(=O)c1c(O)c3c(c(O)c1C2=O)C[C@@](O)(C(C)=O)C[C@@H]3O[C@H]1C[C@H](N)[C@H](O)[C@H](C)O1 [DAUNORUBICIN] | 155 | 340 | 2990 | 9120 |
| O=C1C(O)=C([C@H]2CC[C@H](c3ccc(Cl)cc3)CC2)C(=O)c2ccccc21 [ATOVAQUONE] | – | – | 0.3 | > 10000 |
| Nc1ccc2ncnc(NCCc3ccc(Oc4ccccc4)cc3)c2c1 | 1170 | – | 12 | 59000 |
| CO[C@H](C(=O)[C@@H](O)[C@@H](C)O)[C@@H]1Cc2cc3cc(O[C@H]4C[C@@H](O[C@H]5C[C@@H](O)[C@H](O)[C@@H](C)O5)[C@H](O)[C@@H](C)O4)c(C)c(O)c3c(O)c2C(=O)[C@H]1O[C@H]1C[C@@H](O[C@H]2C[C@@H](O[C@H]3C[C@](C)(O)[C@H](O)[C@@H](C)O3)[C@@H](O)[C@@H](C)O2)[C@H](O)[C@@H](C)O1 [PLICAMYCIN] | – | – | – | > 10000 |
| COc1ccc2[nH]c([S+]([O-])Cc3ncc(C)c(OC)c3C)nc2n1 (configuration not stated) [TENATOPRAZOLE] | > 5000 | > 5000 | 224 | > 10000 |
| COc1ccc2[nH]c([S+]([O-])Cc3ncc(C)c(OC)c3C)nc2c1 (configuration not stated) [OMEPRAZOLE] | > 50000 | > 50000 | 680 | > 10000 |
| CCCOc1ccccc1-c1nc2nn[nH]c2c(=O)[nH]1 [ZAPRINAST] | 19300 | > 50000 | 7790 | > 10000 |
| CC[C@@]1([C@@H]2O[C@@H]([C@H]3O[C@@](O)(CO)[C@H](C)C[C@@H]3C)C[C@@H]2C)CC[C@H]([C@]2(C)CC[C@]3(C[C@H](O)[C@@H](C)[C@@H]([C@@H](C)[C@@H](OC)[C@H](C)C(=O)O)O3)O2)O1 [MONENSIN SODIUM] | – | – | – | > 100000 |
| CCCCCC[C@H]1C(=O)O[C@H](C)[C@H](NC(=O)c2cccc(NC=O)c2O)C(=O)O[C@@H](C)[C@@H]1OC(=O)CC(C)C [ANTIMYCIN A] | – | – | 2.3 | > 100000 |
| CC(=O)O[C@@H]1C[C@H]2C(C)(C)C(=O)C=C[C@]2(C)[C@H]2CC[C@@]3(C)[C@H](c4ccoc4)OC(=O)[C@H]4O[C@]43[C@@]21C [GEDUNIN] | – | – | 760 | > 100000 |
| CC(C)=CC[C@@H](O)C1=CC(=O)c2c(O)ccc(O)c2C1=O [SHIKONIN] | > 5000 | > 5000 | 1370 | 28100 |
| CCCc1nc2c(C)cc(-c3nc4ccccc4n3C)cc2n1Cc1ccc(-c2ccccc2C(=O)O)cc1 | > 5000 | > 5000 | 25 | > 10000 |
| CC[C@@H](C(=O)[C@@H](C)[C@@H](O)[C@H](C)[C@@H]1O[C@@H]([C@@H](CC)C(=O)O)CC[C@@H]1C)[C@H]1O[C@]2(C=C[C@@H](O)[C@]3(CC[C@@](C)([C@H]4CC[C@](O)(CC)[C@H](C)O4)O3)O2)[C@H](C)C[C@@H]1C [SALINOMYCIN SODIUM] | – | – | 2 | 58000 |
| C/C=C/C[C@@H](C)[C@@H](O)[C@H]1C(=O)N[C@@H](CC)C(=O)N(C)CC(=O)N(C)[C@@H](CC(C)C)C(=O)N[C@@H](C(C)C)C(=O)N(C)[C@@H](CC(C)C)C(=O)N[C@@H](C)C(=O)N[C@H](C)C(=O)N(C)[C@@H](CC(C)C)C(=O)N(C)[C@@H](CC(C)C)C(=O)N(C)[C@@H](C(C)C)C(=O)N1C [CYCLOSPORINE] | – | 138 | 1.65 | – |
| CC[C@H]1CN2CCc3cc(OC)c(OC)cc3[C@@H]2C[C@@H]1C[C@H]1NCCc2cc(OC)c(OC)cc21 [EMETINE HYDROCHLORIDE] | 18 | – | 80 | 10000 |
